Experiments:
[1] = Stability of the three analytes in rat plasma under various storage conditions; type: in vitro ADME; conditions: n = 6; for Stability (% RE) Post-Preparative: 12 h after sample preparation at 4 °C; for Stability (% RE) Short-Term / Stability (% RE) Three Freeze-Thaw: rat plasma; for Stability (% RE) Short-Term: 4 h at ambient temperature; for Stability (% RE) Three Freeze-Thaw: three freeze-thaw cycles at −20 °C
Protocol: The stability of rat plasma under different storage conditions was determined. […] All compounds maintained steady levels for […].
The stability of the three compounds in rat plasma, including freeze and thaw stability (three freeze-thaw cycles at −20 °C), long-term stability (storage for 2 weeks at −80 °C), room temperature stability (storage for 4 h at ambient temperature), and post-preparation stability (storage for 12 h after sample preparation at 4 °C), was tested at two QC levels with six replicates at each level. All stability testing QC samples were determined using the calibration curve of freshly prepared standard samples.

[2] = as above; type: in vitro ADME; conditions: storage for 2 weeks at −80 °C (b26 says −20 °C), n = 6
[3] = Pharmacokinetic study in rats after single oral administration of ZGI, DGE, PA or S. officinalis extract (plasma, UHPLC-MS/MS); type: in vivo, Sprague-Dawley rats; conditions: for conversion in vivo after oral administration (in words): rats, oral administration of the monomer, from plasma levels of ZGI, DGE, PA
Description: The UHPLC–MS/MS method was successfully used in the pharmacokinetic studies of the three analytes after single dose administration of ZGI, DGE, PA, and S. officinalis extract in rats (0.55 g/kg, equivalent to 0.03, 0.013, and 0.007 g/kg of ZGI, DGE, and PA, respectively). Based on the body surface area calculations of people and the animals and equivalent dose conversion calculations, the dosage of the rats was 0.55 g/kg.
The experimental protocol was permitted by the Animal Ethics Committee of Harbin Medical University (Approval Code: AECHMU20150021, Approval Date: 3 June 2015) and conformed to the principles for the Care and Use of Laboratory Animals. Twenty-four male Sprague-Dawley rats (weighting 200 ± 20 g), which were provided by the Laboratory Animal Center at Harbin Medical University (Harbin, China), were used for the pharmacokinetic study. The animals were maintained in a SPF-grade room on a 12 h light/dark cycle with a controlled temperature conditions (21 ± 2 °C) and relative humidity (50 ± 5%) before the experiment. During the adaptation process, all rats were provided with standard food and purified water each morning and evening. Each rat fasted for 12 h before giving the drug and was randomly divided into one of four groups (n = 6).
A single dose of the S. officinalis extract (0.55 g/kg, group I), ZGI (0.03 g/kg, group II), DGE ([…], group III), and PA (0.013 g/kg, group IV) was administrated to the rats. The S. officinalis extract was dissolved in water. A single dose of 0.55 g/kg of S. officinalis extract was administrated to the rats. Blood was obtained from the retinal venous plexus at 0, 0.083, 0.5, 1.0, 1.5, 2.0, 2.5, 3.0, 4.0, 6.0, 8.0, 12.0, and 24.0 h after dosing. The plasma was immediately separated by centrifugation at 8000 rpm for 4 min at −4 °C.
The maximum concentration (Cmax) and the time to attain it (Tmax) were observed directly from the measured data. The elimination rate constant (Ke) was calculated by linear regression of the terminal points in a semi-log plot of the plasma concentration against time. The area under plasma concentration–time curve (AUC0→t) to the last measurable plasma concentration (Ct) was estimated using the linear trapezoidal rule.
Calculate the amount of three compounds using linear regression from the standard curve. The pharmacokinetic parameters of the analytes were calculated with DAS 2.0 (Shanghai, China). All results were expressed as mean ± SD. The comparison of pharmacokinetic parameters was conducted using standard Student’s t-test. Differences between groups were assumed statistically significant for p values < 0.05.

[4] = high QC (ZGI 2080, DGE 1840, PA 840.0 ng/mL)
[5] = low QC (ZGI 19.5, DGE 17.4, PA 7.8 ng/mL)

## CC1CCC2(C(=O)OC3OC(CO)C(O)C(O)C3O)CCC3(C)C(=CCC4C5(C)CCC(O)C(C)(C)C5CCC43C)C2C1(C)O [DGE, 3β,19α-dihydroxyurs-12-en-28-oic-acid 28-β-D-glucopyranosyl ester]
[1]; [4]
  Stability (% RE) Post-Preparative: 7.7 % RE
  Stability (% RE) Short-Term: 0.70 % RE
  Stability (% RE) Three Freeze-Thaw: 3.5 % RE
[1]; [5]
  Stability (% RE) Post-Preparative: 14 % RE
  Stability (% RE) Short-Term: 8.4 % RE
  Stability (% RE) Three Freeze-Thaw: 3.3 % RE
[2]; [4]
  Stability (% RE) Long-Term: 5.8 % RE
[2]; [5]
  Stability (% RE) Long-Term: 9.6 % RE
[3]
  conversion in vivo after oral administration (in words): may be transformed into PA

## C[C@@H]1CC[C@]2(C(=O)O)CC[C@]3(C)C(=CC[C@@H]4[C@@]5(C)CC[C@H](O)C(C)(C)[C@@H]5CC[C@]43C)[C@@H]2[C@]1(C)O [PA, pomolic acid]
[1]; [4]
  Stability (% RE) Post-Preparative: 13 % RE
  Stability (% RE) Short-Term: 3.1 % RE
  Stability (% RE) Three Freeze-Thaw: 5.2 % RE
[1]; [5]
  Stability (% RE) Post-Preparative: 7.1 % RE
  Stability (% RE) Short-Term: −5.0 % RE
  Stability (% RE) Three Freeze-Thaw: 12 % RE
[2]; [4]
  Stability (% RE) Long-Term: 7.6 % RE
[2]; [5]
  Stability (% RE) Long-Term: 13 % RE
[3]
  conversion in vivo after oral administration (in words): cannot convert into ZGI and DGE

## C[C@@H]1CC[C@]2(C(=O)O[C@@H]3O[C@H](CO)[C@@H](O)[C@H](O)[C@H]3O)CC[C@]3(C)C(=CC[C@@H]4[C@@]5(C)CC[C@H](O[C@@H]6OC[C@H](O)[C@H](O)[C@H]6O)C(C)(C)[C@@H]5CC[C@]43C)[C@@H]2[C@]1(C)O [ZGI, Ziyuglycoside I]
[1]; [4]
  Stability (% RE) Post-Preparative: 6.4 % RE
  Stability (% RE) Short-Term: 2.4 % RE
  Stability (% RE) Three Freeze-Thaw: 2.8 % RE
[1]; [5]
  Stability (% RE) Post-Preparative: 9.2 % RE
  Stability (% RE) Short-Term: 14 % RE
  Stability (% RE) Three Freeze-Thaw: 6.2 % RE
[2]; [4]
  Stability (% RE) Long-Term: 3.4 % RE
[2]; [5]
  Stability (% RE) Long-Term: 15 % RE
[3]; male, Sprague-Dawley, analyte ZGI in rat plasma, single oral dose of the row's substance (S. officinalis extract 0.55 g/kg, ZGI 0.03 g/kg), n = 6, mean ± SD
  Cmax: 678 ± 47 ng/mL
[3]; male, Sprague-Dawley, analyte ZGI in rat plasma, single oral dose of the row's substance (extract 0.55 g/kg, ZGI 0.03 g/kg), n = 6
  Tmax: 1.4 ± 0.2 h
[3]; male, Sprague-Dawley, analyte ZGI in rat plasma, single oral dose of the row's substance (extract 0.55 g/kg, ZGI 0.03 g/kg), n = 6, read-out: t1/2 of ZGI (converted)
  half-life: 11 ± 1 h
[3]
  conversion in vivo after oral administration (in words): may be converted into DGE and PA
